Measurements reported in publication PMC9763021, “Comprehensive Assessment of Biomolecular Interactions of Morpholine-Based Mixed Ligand Cu(II) and Zn(II) Complexes of 2,2′-Bipyridine as Potential Anticancer and SARS-CoV-2 Agents: A Synergistic Experimental and Structure-Based Virtual Screening” (Bioinorganic Chemistry and Applications, 2022).

Assays:
[1] = test system: MCF-7 breast cancer cell line; assay: MTT cell viability assay, MCF-7; type: cell-based, human
Protocol: (§1) All substances towards the A549, HepG2, MCF-7, and NHDF cell lines were evaluated by using the MTT approach. The collected data were utilized to compute the IC50 value and contrast it with the gold standard cisplatin anticancer medication.
(§2) Cellular viability or metabolic properties can be measured using the MTT assay, which is a powerful and credible method for anticancer properties. The anticancer efficacy of all test compounds was investigated by the MTT assay against A549, HepG2, MCF-7, and NHDF cell lines. As per the colorimetric approach, the IC50 findings of all test substances were evaluated as the % of cell viability/growth inhibition. […] Nevertheless, complex (1a) has the highest cytotoxic potential among others. The acquired findings were in the subsequent sequence as follows: (cisplatin) > (1a) > (2a) > (HL) (Figure 16 and Table 10). The cytotoxic effectiveness is dependent upon the DNA-binding modalities, the structure-activity relationship, as well as drug concentrations and incubation period exposure. […] As per Tweedy's chelation theory, charge equilibration happens as a result of coordination between the ligands and metal ions, which minimises the polarity of the metal ions and causes the capability of the test complexes to pass via the cell membrane lipid layer. Thus, it put off the synthesis of cell wall/protein/nucleic acids. Additionally, the results of DNA-binding tests using these complexes, including gel electrophoresis, UV-visible spectral titration, hydrodynamic, emission, and CV findings, were in good agreement with the findings of cytotoxicity. The expressions (46) and (47) were supported to measure the % of growth inhibition and cell viability. […]
(§3) A549, HepG2 MCF-7, and NHDF are represented as human lung cancer cell line, liver cancer cell line, breast cancer cell line, and normal human dermal fibroblasts cell line.(45) % Cytotoxiciy=1− Mean absorbance of Sample at 595 nm/Mean absorbance of Controlat 595 nm ×100, (46) Cellviability%=100−Cytotoxiciy%.

[2] = test system: HepG2 liver cancer cell line; assay: MTT cell viability assay, HepG2; type: cell-based, human
Protocol: as §1, §2, §3

[3] = test system: CT-DNA; assay: DNA binding by UV-visible absorption titration; design: species or system calf thymus; conditions: for % H (hypochromism) / Δλ nm (red shift on DNA binding): Tris-HCl pH 7.4, 25°C; for ∆Gb° BH-I: from Kb BH-I; for ∆Gb° BH-I / ∆Gb° (BH-II) / ∆Gb° SK-I / ∆Gb° (SK-II) / ∆Gb° WS-I / ∆Gb° (WS-II): T = 298 K; for ∆Gb° (BH-II): from Kb BH-II; for ∆Gb° SK-I: from Kb SK-I; for ∆Gb° (SK-II): from Kb SK-II; for ∆Gb° WS-I: from Kb WS-I; for ∆Gb° (WS-II): from Kb WS-II
Protocol: The DNA-binding experiment was conducted by an electronic absorption spectrophotometer by raising the DNA concentration from zero to 50 μM to the given concentration of all samples (50 μM) in Tris-HCl buffer solution (pH: 7.4) at 25°C [6, 28, 31, 32].
UV-visible absorption titration is the main imperative approach to observing the tendency of test substances to bind with deoxyribonucleic acid. The approach is commonly utilized to evaluate the potency and mode of binding of the test substances with deoxyribonucleic acid. The essential information regarding conformational change, the effectiveness of the DNA-substance binding, and the negatively charged phosphate on deoxyribonucleic acid are neutralized via exterior contact, and intercalation through interactions between π-π stacks is presented by DNA binding towards metal complexes. All complexes (1a-2a), including the free ligand (HL), were measured in the presence and absence of deoxyribonucleic acid by ultraviolet-visible spectrophotometric titrations under Tris-HCl buffer solution (pH: 7.4) at room temperature (Figure 2). In this case, all samples were exposed to two prominent electronic absorption bands at 260 nm and 336–343 nm, consequent to the π-π^∗ transition of the phenyl chromophore and MLCT, respectively. While the amount of DNA concentration rises in each test compound, the interaction of the chemical substance with DNA base pairs generates noticeable alterations in the intraligand charge transfer bands' strength and wavelength. […] The Kb findings were measured for all samples by the Wolfe–Shimmer equations […] by methods I and II, respectively, from the findings of the slope divided by the intercept in the linear regression plots of [DNA]/(ɛa − ɛf) vs. [DNA] and the intercept divided by intercept slope in the linear regression plot of (ɛb − ɛf)/(ɛa − ɛf) vs. 1/[DNA] M^−1 (Figure S17), and the Kb results for each sample were in the subsequent sequence: (1a) > (2a) > (HL). […] It is concluded that the morpholine linked ligand's coplanarity and 2,2′-bipyridine aromatic system complexation with the metal center, which promotes the complex to infiltrate DNA base pairs smoothly, and large aromatic systems may also assist the complex to penetrate the phosphate backbone's core deeply, and those substances may permit the complex to freely penetrate deep into the deoxyribonucleic acid double helix. In addition, the observed isosbestic points are found at 256 and 276 nm for free ligand and complexes (1a-2a), respectively. […] The Wolfe–Shimmer (1 and 2), Benesi–Hildebrand (3 and 4), and Sakthi–Krause equations (5 and 6) were supported to evaluate Kb results for all samples (Table 1). The Benesi–Hildebrand binding constant (Kb) values were measured using equations (3) and (4) by methods I and II, respectively, from the intercept divided by slope in the linear regression plot of [1/(Ax − A0)] vs. {1/[DNA]} M^−1 and the intercept divided by slope in the linear regression plot of [(Amax − A0)/(Ax − A0)] vs. {1/[DNA]} M^−1 (Figure S18). The Kb values were estimated using Sakthi–Krause equations (5) and (6) by methods I and II, respectively, with the intercept divided by slope in the linear regression plot of [(A/(A0 − A)] vs. {1/[DNA]} M^−1 (Figure S19) and the antilogarithm value of the intercept in the linear regression plot of log {1/[DNA]} vs. log [(A/(A0 − A)]M^−1 (Figure S20). In addition, the Van't Hoff equation (7) was supported to obtain the ∆Gb° values for DNA interaction, and equation (8) was supported to measure the % of chromicity for all substances (Table 1). The overall measured Kb findings were in the subsequent sequence: (1a) > (2a) > (HL). In these cases, the observed ∆Gb° values were reported in the range of −19.91 to −29.13, −21.55 to −26.04 and −22.50 to –25.22 kJ·mol^−1, respectively (Table 1). In these cases, the complex (1a) had the highest DNA-binding efficacy among all binding results. […]

[4] = test system: NHDF normal human dermal fibroblasts cell line; assay: MTT cell viability assay, NHDF; type: cell-based; conditions: 72 hours exposure, normal cells
Protocol: as §1, §2, §3

## Oc1ccccc1N=Cc1ccc(N2CCOCC2)cc1 [(HL), 2-(4-morpholinobenzylideneamino)phenol]
[1]; Homo sapiens, MCF7, 72 hours exposure
  IC50: 105 ± 5.3 µM
[2]; Homo sapiens, HepG2, 72 hours exposure
  IC50: 108 ± 5.4 µM
[3]
  % H (hypochromism): 37.13%
  Δλ nm (red shift on DNA binding): 04 nm
  ∆Gb° BH-I: -21.55 kJ/mol
  ∆Gb° (BH-II): -24.48 kJ/mol
  ∆Gb° SK-I: -22.50 kJ/mol
  ∆Gb° (SK-II): -24.18 kJ/mol
  ∆Gb° WS-I: -23.85 kJ/mol
  ∆Gb° (WS-II): -23.90 kJ/mol
[4]; Homo sapiens, NHDF
  IC50: 209 ± 10.4 µM

## [Cu+2].[O-]c1ccccc1N=Cc1ccc(N2CCOCC2)cc1.[O-]c1ccccc1N=Cc1ccc(N2CCOCC2)cc1.c1ccc(-c2ccccn2)nc1 [(1a), [Cu(L)2(bpy)]]
[1]; 72 hours exposure
  IC50: 32.1 ± 1.6 µM
[2]; 72 hours exposure
  IC50: 33.1 ± 1.7 µM
[3]
  % H (hypochromism): 52.18%
  Δλ nm (red shift on DNA binding): 07 nm
  ∆Gb° BH-I: -26.04 kJ/mol
  ∆Gb° (BH-II): -25.04 kJ/mol
  ∆Gb° SK-I: -24.15 kJ/mol
  ∆Gb° (SK-II): -25.22 kJ/mol
  ∆Gb° (WS-II): -24.76 kJ/mol
[4]
  IC50: 73.6 ± 3.7 µM

## [O-]c1ccccc1N=Cc1ccc(N2CCOCC2)cc1.[O-]c1ccccc1N=Cc1ccc(N2CCOCC2)cc1.[Zn+2].c1ccc(-c2ccccn2)nc1 [(2a), [Zn(L)2(bpy)]]
[3]
  % H (hypochromism): 43.15%
  Δλ nm (red shift on DNA binding): 05 nm
  ∆Gb° BH-I: -24.79 kJ/mol
  ∆Gb° (BH-II): -24.84 kJ/mol
  ∆Gb° SK-I: -23.70 kJ/mol
  ∆Gb° (SK-II): -24.55 kJ/mol
  ∆Gb° WS-I: -24.315 kJ/mol
  ∆Gb° (WS-II): -24.16 kJ/mol
